One test has as its system C. albicans. The experiment in a line: Kill or inhibit growth/proliferation; morphology, biofilm and growth disruption (Tables 5, 6). Further: test concentration or dose not given here. It counts as cell-based, Candida albicans. Details: key: A: Peptide aggregates; B: Less hyphal formation; Clumps; Diffuse clumps and small polyps; F: Diffuse growth; H: Thin; I: Growth inhibition; Microcolony formation; Rippled; Small polyps; Thick; W: Halo formation on top, microlonies on bottom.

Another test concerns S. pneumoniae. The description is as above. The format is cell-based, Streptococcus pneumoniae. Details: key: A: Peptide aggregates; B: Less hyphal formation; Clumps; Diffuse clumps and small polyps; F: Diffuse growth; H: Thin; I: Growth inhibition; Microcolony formation; Rippled; Small polyps; Thick; W: Halo formation on top, microlonies on bottom.
For test [1], the system named is microorganisms (e.g., bacteria, yeasts, fungi). The test is described as follows: Targeting peptide binding to target microorganisms (Table 3). Particulars: preferably 1x PBS; for Target(s) (microorganisms bound by the targeting peptide): peptide binding in aqueous buffers varied by peptide solubility.
Another test relates to E. faecalis. The test is described as follows: Kill or inhibit growth/proliferation; morphology, biofilm and growth disruption (Tables 5, 6). Further: test concentration or dose not given here. The format is cell-based, Enterococcus faecalis. Details: key: A: Peptide aggregates; B: Less hyphal formation; Clumps; Diffuse clumps and small polyps; F: Diffuse growth; H: Thin; I: Growth inhibition; Microcolony formation; Rippled; Small polyps; Thick; W: Halo formation on top, microlonies on bottom.

The subject of another test is microorganisms. The experiment in a line: Peptides having multiple activities (targeting/binding, antimicrobial, growth or phenotype altering). An excerpt:
In certain embodiments, peptides described herein can have multiple activities. Thus for example, a peptide can have both binding/targeting activity and antimicrobial activity. Such peptides can be used, e.g., in a chimeric construct, for any or all of these properties. Thus, for example, a peptide designated “B” in Table 8 can be used as a targeting peptide. If it is also designated G or M it can also be used for antimicrobial activity.

In the next test the test system is E. coli. The test is described as follows: Kill or inhibit growth/proliferation; morphology, biofilm and growth disruption (Tables 5, 6). Further: test concentration or dose not given here. The format is cell-based, Escherichia coli. Set-up: key: A: Peptide aggregates; B: Less hyphal formation; Clumps; Diffuse clumps and small polyps; F: Diffuse growth; H: Thin; I: Growth inhibition; Microcolony formation; Rippled; Small polyps; Thick; W: Halo formation on top, microlonies on bottom.

In another test the test system is MRSA. The test is described as above. It counts as cell-based, Methicillin-resistant Staphylococcus aureus. Details: key: A: Peptide aggregates; B: Less hyphal formation; Clumps; Diffuse clumps and small polyps; F: Diffuse growth; H: Thin; I: Growth inhibition; Microcolony formation; Rippled; Small polyps; Thick; W: Halo formation on top, microlonies on bottom. Further: test concentration or dose not given here.
The next test concerns S. epidermidis. The test is described as above. Set-up: key: A: Peptide aggregates; B: Less hyphal formation; Clumps; Diffuse clumps and small polyps; F: Diffuse growth; H: Thin; I: Growth inhibition; Microcolony formation; Rippled; Small polyps; Thick; W: Halo formation on top, microlonies on bottom. It counts as cell-based, Staphylococcus epidermidis.
The subject of the next test is B. subtilis. The test is described as above. Set-up: key: A: Peptide aggregates; B: Less hyphal formation; Clumps; Diffuse clumps and small polyps; F: Diffuse growth; H: Thin; I: Growth inhibition; Microcolony formation; Rippled; Small polyps; Thick; W: Halo formation on top, microlonies on bottom. It counts as cell-based, Bacillus subtilis.
A further test relates to C. jejuni. Described as above. It counts as cell-based, Campylobacter jejuni. Set-up: key: A: Peptide aggregates; B: Less hyphal formation; Clumps; Diffuse clumps and small polyps; F: Diffuse growth; H: Thin; I: Growth inhibition; Microcolony formation; Rippled; Small polyps; Thick; W: Halo formation on top, microlonies on bottom.
The subject of a further test is M. luteus. Described as above. The format is cell-based, Micrococcus luteus. Set-up: key: A: Peptide aggregates; B: Less hyphal formation; Clumps; Diffuse clumps and small polyps; F: Diffuse growth; H: Thin; I: Growth inhibition; Microcolony formation; Rippled; Small polyps; Thick; W: Halo formation on top, microlonies on bottom.
In the next test the test system is C. jeikeium. The test is described as above. Set-up: key: A: Peptide aggregates; B: Less hyphal formation; Clumps; Diffuse clumps and small polyps; F: Diffuse growth; H: Thin; I: Growth inhibition; Microcolony formation; Rippled; Small polyps; Thick; W: Halo formation on top, microlonies on bottom. It counts as cell-based, Corynebacterium jeikeium. Further: test concentration or dose not given here.

“Also recorded” adds a separate entry of the source. Ends that are not written are not given here.
Wherever Organism, effect (morphology, biofilm and growth disruption) is given: test concentration or dose not given here.
Wherever Organism, effect is given: test concentration or dose not given here.

For “PF-640: peptide having multiple activities (chain 1 MGDINRNF; chain 2 MGDINRNF; Peptide with targeting and/or antimicrobial activity)”, the “Organism, effect” value is recorded as “C. albicans (B)” with C. albicans, “S. pneumoniae (I)” in the test with S. pneumoniae and “E. faecalis (H)” with E. faecalis. In addition, the “Target(s) (microorganisms bound by the targeting peptide)” value in test [1] is “C. albicans”. Moreover, the Activities entry in the test with microorganisms is recorded as “G B”.

With “PF-528: peptide having multiple activities (chain 1 LVDVVVLIRRHLPKSCS-NH2; chain 2 LVDVVVLIRRHLPKSCS-NH2; cysteine pairing not given here)”, the “Organism, effect” value in the test with C. albicans was “C. albicans (C)”; with E. coli, “E. coli (H)”; in the test on S. pneumoniae, “S. pneumoniae (R)”; with MRSA, “MRSA (H)”; in the test with S. epidermidis it was “S. epidermidis (H)”. Further, the “Target(s)” value in test [1] (microorganism(s) the targeting peptide binds, peptide binding conducted in aqueous buffers varied by peptide solubility) was “S. epidermidis and P. aeruginosa and C. albicans and MRSA and S. pneumoniae and E. faecalis”. Moreover, the Activities entry in the test on microorganisms is recorded as “G B”.

For the substance “PF-639: peptide having multiple activities (chain 1 QATQIKSWIDRLLVSED; chain 2 QATQIKSWIDRLLVSED; Peptide with targeting and/or antimicrobial activity)”, the “Organism, effect” value was “C. albicans (B)” in the test on C. albicans, “S. pneumoniae (I)” in the test with S. pneumoniae, “MRSA (R)” with MRSA and “E. faecalis (H)” in the test with E. faecalis. In addition, the “Target(s) (microorganisms bound by the targeting peptide)” value in test [1] is on record as “S. pneumoniae; also recorded: C. jeikeium”. Further, the Activities entry in the test on microorganisms is “G B”.

“PF-654 (chain 1 LSGRLAGRR; chain 2 LSGRLAGRR; Peptide with targeting and/or antimicrobial activity)”: the “Organism, effect (morphology, biofilm and growth disruption)” value is recorded as “C. albicans (B)” with C. albicans, “S. pneumoniae (A)” in the test on S. pneumoniae and “MRSA (R)” with MRSA. The “Target(s) (microorganisms bound by the targeting peptide)” value in [1] is listed as “Mycobacteria spp”.

In the case of “PF-627: peptide having multiple activities (INDLLSYFTLHEK; Peptide with targeting and/or antimicrobial activity)”, the “Organism, effect” value is “C. albicans (B)” with C. albicans; “S. pneumoniae (I)” in the test on S. pneumoniae; “MRSA (R)” in the test on MRSA; “S. epidermidis (H)” in the test on S. epidermidis; “E. faecalis (H)” in the test with E. faecalis. Further, the “Target(s) (microorganisms bound by the targeting peptide)” value in [1] is “S. epidermidis and P. aeruginosa and MRSA and S. pneumoniae and E. faecalis and C. jeikeium”. In addition, the Activities entry in the test with microorganisms is “G B”.

In the case of “PF-646 (chain 1 APASPGRRPG; chain 2 APASPGRRPG; Peptide with targeting and/or antimicrobial activity)”, the “Organism, effect” value in the test on C. albicans is recorded as “C. albicans (B)”. In addition, the “Organism, effect (morphology, biofilm and growth disruption)” value with S. pneumoniae is given as “S. pneumoniae (H)”. Also, in test [1], the “Target(s) (microorganisms bound by the targeting peptide)” value is recorded as “Mycobacteria spp”.

As to “PF-556: peptide having multiple activities (chain 1 SLQIRMNTLTAAKASIEAA; chain 2 SLQIRMNTLTAAKASIEAA; Peptide with targeting and/or antimicrobial activity)”, the “Organism, effect” value in the test with B. subtilis is given as “B. subtilis (C)”; in the test on S. pneumoniae, “S. pneumoniae (D)”; with C. jejuni, “C. jejuni (R)”; in the test on MRSA, “MRSA (M)”; in the test with M. luteus, “M. luteus (A)”; with S. epidermidis it was “S. epidermidis (A)”. For the same substance, the “Organism, effect” value in the test with C. jeikeium is “C. jeikeium (D)”; in the test on E. faecalis it was “E. faecalis (A)”. Besides, the Activities result in the test with microorganisms is “G B”.

With “PF-526: peptide having multiple activities (chain 1 VLLLFIFQPFQKQLL-NH2; chain 2 VLLLFIFQPFQKQLL-NH2)”, the “Organism, effect” value in the test on C. albicans is given as “C. albicans (C)”; in the test on E. coli, “E. coli (R)”; with S. pneumoniae, “S. pneumoniae (R)”; in the test with MRSA, “MRSA (C)”; in the test on S. epidermidis, “S. epidermidis (C)”. Besides, the Activities entry in the test on microorganisms is “G B”.

For “PF-617: peptide having multiple activities (PMNAAEPE; Peptide with targeting and/or antimicrobial activity)”, the “Organism, effect” value was “C. albicans (H)” in the test with C. albicans, “S. pneumoniae (I)” with S. pneumoniae and “E. faecalis (H)” in the test with E. faecalis. Besides, the “Target(s) (microorganisms bound by the targeting peptide)” value in test [1] was “P. aeruginosa; also recorded: C. albicans”. For the same substance, the Activities entry with microorganisms is “G B”.

Take “PF-645 (chain 1 SNSVQQG; chain 2 SNSVQQG; Peptide with targeting and/or antimicrobial activity)”: the “Organism, effect” value in the test on C. albicans is “C. albicans (B)”; in the test on S. pneumoniae, “S. pneumoniae (I)”. In addition, the “Target(s) (microorganisms bound by the targeting peptide)” value in [1] is “Mycobacteria spp”.

For the substance “PF-684 (chain 1 RKLSLASGFALWRRSLV; chain 2 RKLSLASGFALWRRSLV; Peptide with targeting and/or antimicrobial activity)”, the “Organism, effect (morphology, biofilm and growth disruption)” value with C. albicans is given as “C. albicans (B)”; in the test with S. pneumoniae, “S. pneumoniae (C)”; with E. faecalis, “E. faecalis (A)”. Further, in test [1], the “Target(s) (microorganisms bound by the targeting peptide)” value is on record as “Mycobacteria spp”.

Regarding “PF-698 (chain 1 SSGRAGVKCRRPTGR; chain 2 SSGRAGVKCRRPTGR; Peptide with targeting and/or antimicrobial activity)”, the “Organism, effect (morphology, biofilm and growth disruption)” value in the test with C. albicans was “C. albicans (H)”; in the test on S. pneumoniae it was “S. pneumoniae (A)”; with E. faecalis, “E. faecalis (A)”. Moreover, the “Target(s) (microorganisms bound by the targeting peptide)” value in [1] is on record as “Mycobacteria spp”.

Consider “PF-697 (chain 1 RADARAK; chain 2 RADARAK; Peptide with targeting and/or antimicrobial activity)”, for which the “Organism, effect (morphology, biofilm and growth disruption)” value in the test with C. albicans is “C. albicans (H)”; in the test on S. pneumoniae, “S. pneumoniae (H)”. The “Target(s) (microorganisms bound by the targeting peptide)” value in [1] is reported as “Mycobacteria spp”.

Regarding “PF-647 (chain 1 GTFLGQKCAAATAS; chain 2 GTFLGQKCAAATAS; Peptide with targeting and/or antimicrobial activity)”, the “Organism, effect (morphology, biofilm and growth disruption)” value with C. albicans was “C. albicans (B)”; in the test with S. pneumoniae, “S. pneumoniae (R)”. Besides, the “Target(s) (microorganisms bound by the targeting peptide)” value in test [1] is reported as “Mycobacteria spp”.

Source of the values: patent publication US20110039762A1, “TARGETED ANTIMICROBIAL MOIETIES” (C3 JIAN, INC., priority 2009, published 2011).
